# Key:
# [1] = test system: influenza M1 protein, H9N2/G1 (A/Quail/HK/G1/97); assay type: cell-based, human influenza virus
# [2] = test system: influenza virus H1N1 (A/HK/54/98), oseltamivir-sensitive strain; assay type: cell-based, human influenza virus
# [3] = test system: influenza virus H9N2/G1 (A/Quail/HK/G1/97); assay type: cell-based, human influenza virus
# [4] = test system: influenza virus H9N2 (A/Quail/HK/G1/97); assay type: cell-based, human influenza virus
# [5] = test system: influenza virus H9N2/G1 (A/Quail/HK/G1/97); assay type: cell-based, human influenza virus; remark: listed apart in the source
# [6] = test system: influenza virus H3N2 (A/H3N2/1174/99); assay type: cell-based, human influenza virus
# [7] = test system: human influenza viruses H1N1 (A/HK/54/98), H9N2 (A/Quail/HK/G1/97), H3N2 (A/H3N2/1174/99); assay type: cell-based, human influenza virus
# prostaglandin E2 (PGE2) = assay type: cell-based, human
structure (smiles),measurement,setting,value
"C[C@@H]1O[C@@H](OC[C@H]2O[C@@H](OCCc3ccc(O)c(O)c3)[C@H](O)[C@@H](O)[C@@H]2OC(=O)/C=C/c2ccc(O)c(O)c2)[C@H](O)[C@H](O)[C@H]1O [Compound A1, forsythoside A]",M1 protein expression level compared to DMSO,[1],lower
same,relative intensity of M1 (normalized to actin),[1],0.39
same,"relative intensity of M1, DMSO-treated over treated cells",[1],more than four fold
same,suppression of virus replication (TCID50) compared with DMSO-treated cells,[2],about 15 fold
same,"virion budding, ultrastructure",[3],slowed or abnormal budding process
same,suppression of virus replication (TCID50) compared with DMSO-treated cells,[4],~24 fold
same,Cytotoxicity index,MDCK cells,1.02
same,cytotoxicity on MDCK cells,"MDCK cells; 100 ug/ml, 48 hours",does not exhibit significant cytotoxicity
same,increase of cells expressing viral proteins from 6 h.p.i. to 10 h.p.i.,[5],about 15%
same,percentages of cells expressing viral proteins vs DMSO at 6 h.p.i.,[5],no significant difference
same,suppression of virus replication (TCID50) compared with DMSO-treated cells,[6],~12 fold
same,anti-influenza virus effects in primary human blood macrophages,[7],possesses anti-influenza virus effects
"COC(=O)CC1(O)C=CC(=O)C=C1 [Compound D1, jacaranone]",PGE2 levels in H9N2/G1-infected macrophages,prostaglandin E2 (PGE2),suppresses PGE2 levels in a dose-dependent manner
same,PGE2 levels in non-infected macrophages,prostaglandin E2 (PGE2),does not cause any changes in PGE2 levels
"CCOC(=O)C1=C[C@@H](OC(CC)CC)[C@H](NC(C)=O)[C@@H](N)C1 [Tamiflu, oseltamivir, reference compound]",suppression of virus (TCID50) compared with diluent (PBS)-treated cells,[2],more than 30 folds

# From patent US20130029923A1, “Materials and Methods for Prevention and Treatment of Viral Infections” (priority 2009, published 2013)
